# Values quoted from earlier work, collected in patent US20240091148A1, “EUTECTIC SOLVENTS COMPRISING PHARMACEUTICAL AGENTS, AND METHODS OF MAKING AND USE THEREOF” (Novilla Pharmaceuticals, Inc., priority 2018, published 2024).
# Settings: values stated in the description, no method or source given
row,Compound,pKa
1,C[C@@H]1C[C@H]2[C@@H]3CCC4=CC(=O)C=C[C@]4(C)[C@@]3(Cl)[C@@H](O)C[C@]2(C)[C@@]1(O)C(=O)CCl [mometasone],12-13
2,CN(C)CCOC(C)(c1ccccc1)c1ccccn1 (stereo not drawn) [doxylamine],8.7-9.2
3,C[C@H]1C[C@H]2[C@@H]3CCC4=CC(=O)C=C[C@]4(C)[C@@]3(Cl)[C@@H](O)C[C@]2(C)[C@@]1(O)C(=O)CO [beclomethasone],13-16
4,CCCC1O[C@@H]2C[C@H]3[C@@H]4CCC5=CC(=O)C=C[C@]5(C)[C@H]4[C@@H](O)C[C@]3(C)[C@]2(C(=O)CO)O1 (stereo partly drawn) [budesonide],13-15
5,C[C@@H]1C[C@H]2[C@@H]3C[C@H](F)C4=CC(=O)C=C[C@]4(C)[C@@]3(F)[C@@H](O)C[C@]2(C)[C@@]1(O)C(=O)SCF [fluticasone],12-14
6,CC(C)C(=O)OCC(=O)[C@@]12O[C@H](C3CCCCC3)O[C@@H]1C[C@H]1[C@@H]3CCC4=CC(=O)C=C[C@]4(C)[C@H]3[C@@H](O)C[C@@]12C [ciclesonide],14-16
